pKi: −log10 of the molar value.
What was measured:
ferrochelatase = conditions: background statement, potent inhibitor of ferrochelatase; cited from earlier work
[1] = biological target: T1, ferrochelatase variant P255G (Mus musculus, UniProt P22315, P308G); experiment: Transient kinetic analysis of NMPP inhibition (stopped-flow, zinc-protoporphyrin formation); format: biochemical, murine
T1 construct: In wild-type, murine, mature ferrochelatase, five tryptophan residues; penta-histidine tag (N); made in house; host or cells: E. coli BL21(DE3)
T1 sequence (P22315 54-422 P308G): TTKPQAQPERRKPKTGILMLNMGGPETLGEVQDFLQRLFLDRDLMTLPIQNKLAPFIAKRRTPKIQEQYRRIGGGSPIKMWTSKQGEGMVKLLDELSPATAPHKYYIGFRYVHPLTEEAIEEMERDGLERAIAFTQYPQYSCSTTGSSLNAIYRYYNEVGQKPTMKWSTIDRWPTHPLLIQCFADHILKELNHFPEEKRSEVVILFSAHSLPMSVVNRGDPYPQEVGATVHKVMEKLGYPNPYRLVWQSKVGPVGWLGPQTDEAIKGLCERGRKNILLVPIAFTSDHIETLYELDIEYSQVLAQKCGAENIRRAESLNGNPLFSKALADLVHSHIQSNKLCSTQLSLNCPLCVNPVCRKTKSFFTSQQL
Protocol: Enzyme (0.5 μM) was reacted with protoporphyrin (5 μM) and zinc-acetate (15 μM) in the presence of various concentrations of NMPP. The pseudo first-order rate constant k was obtained from analysis of the time course (see Materials and Methods and FIG. 4) and plotted against NMPP concentration. The enzymes used in each set were: A. wild-type ferrochelatase; B. variant P255R; C. variant P255G.
The pseudo-first order rate constant dependence on NMPP concentration was best described by equation 2:
[formula] and k−1 are the forward and reverse rate constants, respectively.
Although NMPP binding to P255G occurred via a one-step reaction, the values for the rate constants associated with this step (k1 and k−1) were similar to those determined for the rate-limiting step of the kinetic pathway for inhibition of ferrochelatase and P255R by NMPP.
Transient Kinetic Analysis. The kinetic steps involved in NMPP binding to ferrochelatase were assessed using stopped-flow absorption spectroscopic analysis by monitoring the enzymatic reaction in the presence of various concentrations of the inhibitor NMPP. The reactions were performed using a rapid scanning stopped-flow spectrophotometer (model RSM-1000; OLIS Inc.), equipped with a stopped-flow mixer and an observation chamber with an optical path-length of 4 mm. The dead time of the instrument is ˜2 ms. […] Enzymatic activity was monitored by following the increase in absorbance at 420 nm for zinc-protoporphyrin production using Zn^2+ and protoporphyrin as substrates.
The enzyme and substrate stock solutions were diluted in 100 mM Tris-acetate, pH 8.0, containing 0.5% Tween-80. […] The enzymatic reaction was initiated by mixing the contents from both syringes and reaction progression was monitored by following the increase in absorbance at 420 nm. The data were analyzed by fitting the observed absorbance values to equation 4:
[formula] where A is the observed absorbance, A0 is the initial absorbance, vs is the steady-state velocity, v0 is the initial velocity and k is the pseudo-first order rate constant for inhibitor binding. […]

forward rate constant (one-step binding) [1]: 8.2e+06 M⁻¹ s⁻¹
reverse rate constant k−1 (one-step binding) [1]: 18.7 s⁻¹
pKi ([1]; one-step fit (equation 2), from the rate constants, read-out: apparent inhibition constant Ki^app): 5.64
Substance: N-methyl protoporphyrin [NMPP]
pKi (ferrochelatase): ~8.00
